Laboratory results reported in US6337344B1, “Indole derivatives as inhibitors or factor Xa” (Aventis Pharma Deutschland GmbH, priority 1997, dated 2002).

Assays:
factor Xa = conditions: values of known factor Xa inhibitors stated in the background; cited from earlier work
human factor Xa = target: T1, human factor Xa (Homo sapiens, UniProt P00742); assay: Factor Xa assay (Test 1, a.), chromogenic substrate S-2765; format: biochemical
T1 construct: purchased Enzyme Research Laboratories, Inc; South Bend, Ind
T1 sequence (P00742 235-488 limits assumed): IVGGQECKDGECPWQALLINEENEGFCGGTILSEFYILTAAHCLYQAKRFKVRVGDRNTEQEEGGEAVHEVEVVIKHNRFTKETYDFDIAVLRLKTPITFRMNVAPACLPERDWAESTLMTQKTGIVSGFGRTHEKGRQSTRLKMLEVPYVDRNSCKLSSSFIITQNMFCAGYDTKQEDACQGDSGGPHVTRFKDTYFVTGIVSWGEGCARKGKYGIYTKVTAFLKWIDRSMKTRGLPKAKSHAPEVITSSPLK
T1 sequence (P00742 41-179 partner limits assumed): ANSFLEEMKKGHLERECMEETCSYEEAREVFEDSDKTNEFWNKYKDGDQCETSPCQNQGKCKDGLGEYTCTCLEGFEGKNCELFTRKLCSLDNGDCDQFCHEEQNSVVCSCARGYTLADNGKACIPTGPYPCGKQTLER
Experimental: Purified enzymes are used in chromogenic assays. To determine the inhibition constant Ki, the IC50 value is corrected for competition with substrate using the formula
Ki'IC50×(1/{1+((substrate concentration)/substrate Km)})
wherein Km is the Michaelis-Menten constant (Chen and Prusoff, Biochem. Pharmacol. 22 (1973), […] which is incorporated herein by reference).
TBS-PEG buffer (50 mM Tris-Cl, pH 7.8, 200 mM NaCl, 0.05% (w/v) PEG-8000, 0.02% (w/v) NaN3) is used for this assay.
The assay is performed by pre-incubating the compound of formula I plus enzyme for 10 min. Then the assay is initiated by adding substrate to obtain a final volume of 100 μl. The initial velocity of chromogenic substrate hydrolysis is measured by the change in absorbance at 405 nm using a Bio-tek Instruments kinetic plate reader (Ceres UV900HDi) at 25° C. during the linear portion of the time course (usually 1.5 min after addition of substrate). The concentration of inhibitor that causes a 50% decrease in the rate of substrate hydrolysis is predicted by linear regression after plotting the relative rates of hydrolysis (compared to the uninhibited control) versus the log of the concentration of the compound of formula I. The enzyme concentration is 0.5 nM and substrate concentration is 140 μM.
The inhibition constants were determined as described above (Test 1, a., Factor Xa Assay).

For N=C(N)c1ccc(C=C2CCCCC(=Cc3ccc(C(=N)N)cc3)C2=O)cc1 [2,7-bis-(4-amidinobenzylidene)-cycloheptanone, reference compound], which Ki (factor Xa) is on record?
The Ki was ~20 nM.

For “tick anticoagulant peptide (YNRLCIKPRDWIDECDSNEGGERAYFRNGKGGCDSFWICPEDHTGADYYSSYRDCFNACI; UniProt P17726 1-60, looked up) [TAP]”, which Ki (factor Xa) is on record?
Its Ki is ~0.5 nM.

Which Ki (human factor Xa) does the source give for N=C(N)c1cccc(Cn2c(C(=O)NC(c3ccccc3)c3ccncc3)cc3ccccc32)c1.O=C(O)C(F)(F)F.O=C(O)C(F)(F)F (racemic) [Example 23, (RS)-1-(3-Amidino-benzyl)-1H-indole-2-carboxylic acid α-(4-pyridyl)-benzyl amide trifluoroacetic acid salt] here?
The Ki was 7000 nM.

What about the melting point of the same molecule?
Its melting point is 88 to 92 °C.

With CC(=O)O.CC(=O)[O-].CC(C)(C)OC(=O)Nc1ccc2c(c1)cc(C(=O)NCc1ccc([N+](C)(C)C)cc1)n2Cc1cccc(C(=N)N)c1 [Example 58, [4-({[1-(3-Amidino-benzyl)-5-tert-butoxycarbonylamino-1H-indole-2-carbonyl]-amino}-methyl)-phenyl]-trimethyl-ammonium acetate acetic acid salt] as the molecule, how does the Ki (human factor Xa) read?
The Ki was 14 nM.

What about the melting point of the same molecule?
Its melting point is 146 °C (dec.).

B1: antistasin (protein, UniProt P15358 18-136, looked up)
Antistasin: QGPFGPGCEEAGCPEGSACNIITDRCTCSGVRCRMHCPHGFQRSRYGCEFCKCRLEPMKATCDISECPEGMMCSRLTNKCDCKIDINCRKTCPNGLKRDKLGCEYCECRPKRKLIPRLS
For B1, which Ki (factor Xa) is on record?
The Ki was 0.05 nM.
